Test results: patent US9023852B2, “1, 2, 4-thiadiazol-5-ylpiperazine derivatives useful in the treatment of neurodegenerative diseases” (Remynd NV, priority 2011, dated 2015)

Tested on: M17—3TAU(P301L) cells
Assay: Neuroblastoma tauopathy model: inhibition of TAU-induced cytotoxicity (LDH)
Type: cell-based
Conditions: Homo sapiens, 168 h; inhibition of TAU-induced toxicity (LDH), 7 days differentiation with retinoic acid
Description: A TAU expression plasmid was constructed by sub-cloning the cDNA encoding for human TAU-P301L protein, wherein proline at position 301 is substituted by a leucine residue, into mammalian expression vector pcDNA3.1 resulting in the plasmid pcDNA3.1-TAUP301L. Plasmids pcDNA3.1 and pcDNA3.1-TAU P301L were transfected into human neuroblastoma cells (BE-M17; ATCC No. CRL-2267™) using lipofectamine reagent and subsequently, independent clonal cell lines with the plasmids stably integrated into the genome were selected by antibiotic resistance selection (Geneticin (G418)), resulting in cell lines M17.pcDNA3 and M17—3TAUP301L. Expression of the TAUP301L gene in the M17—3TAUP301L cells was confirmed by Western blot analysis.
Differentiation of the cells with RA leads to phosphorylation and subsequent aggregation of TAU, inducing a tauopathy in these cells. Cytotoxicity of cells was measured by quantification of lactate dehydrogenase (LDH) levels. In dead cells LDH is leaked out of the cells into the medium due to a loss of plasma-membrane integrity.
Briefly, 3 days preceding the experiment pre-cultures of M17.pcDNA3 and M17—3TAU(P301L) cells were prepared, starting from a stock culture, at a density of 50.000-100.000 cells/cm2 in detection medium (Optimem Reduced Serum without phenol red (Gibco, Cat. 31985-047) supplemented with 1% fetal calf serum (FCS), 1 mM sodium pyruvate, 1× non-essential amino acids (NEAA), 500 μg/ml G418 and 0.5× antibiotic/antimycotic (ABAM)). At the day of the experiment these precultures were diluted to ˜0, 1.106 cells/ml in detection medium without FCS and 60 μL of this suspension is dispensed per well into a 96-well microtiter plate. After 3 hours of incubation at 37° C./5% CO2 an equal volume of detection medium containing 2.5 μM RA was added and subsequently incubated for 7 days at 37° C./5% CO2. After 7 days, LDH activity was determined using the Promega Cytotox 96 Non-Radioactive cytotoxicity assay (Cat. G1780), according the manufacturer's instructions. Cytotoxicity is measured as the ratio of LDH increase in the supernatant divided by the LDH increase in the total cell suspension (sum of the LDH measured in cells and supernatant).
The M17—3TAU(P301L) cell line makes it possible to assess the ability of novel compounds to inhibit TAU-induced cytotoxicity. […] Compounds were tested for their ability to hamper TAU-induced toxicity at different concentrations, ranging from low non-effective concentrations to high potent concentrations. Afterwards, the dose-dependent inhibition curve was used to calculate their EC50 (Table 1).

`COc1ccc(CCN2CCN(c3nc(-c4ccc(F)cc4)ns3)CC2)cc1` [Example 47, 1-[3-(4-Fluoro-phenyl)-[1,2,4]thiadiazol-5-yl]-4-[2-(4-methoxy-phenyl)-ethyl]-piperazine] gave an EC50 of 0.0004 µM.

`Fc1ccc(CCN2CCN(c3nc(-c4ccc(Cl)cn4)ns3)CC2)cc1F` [Example 139, 1-[3-(5-Chloro-pyridin-2-yl)-[1,2,4]thiadiazol-5-yl]-4-[2-(3,4-difluoro-phenyl)-ethyl]-piperazine] gave an EC50 of 0.0472 µM.

In the case of `Cc1ccccc1CN1CCN(c2nc(-c3cccc(F)c3)ns2)CC1` [Example 99, 1-[3-(3-Fluoro-phenyl)-[1,2,4]thiadiazol-5-yl]-4-(2-methyl-benzyl)-piperazine], the EC50 is reported as 0.271 µM.

With `Clc1ccc(-c2nsc(N3CCN(CCC4CCOCC4)CC3)n2)cc1` [Example 167, 3-(4-chlorophenyl)-5-(4-(2-(tetrahydro-2H-pyran-4-yl)ethyl)piperazin-1-yl)-1,2,4-thiadiazole] the EC50 was 0.0059 µM.

In the case of `Fc1ccc(CCN2CCN(c3nc(-c4cncc(Cl)c4)ns3)CC2)cc1F` [Example 160, 3-(5-chloropyridin-3-yl)-5-(4-(3,4-difluorophenethyl)piperazin-1-yl)-1,2,4-thiadiazole], the EC50 is reported as 0.0004 µM.

`Clc1ccc(CCN2CCN(c3nc(-c4ccc(Cl)cc4)ns3)CC2)cc1` [Example 25, 1-[2-(4-Chloro-phenyl)-ethyl]-4-[3-(4-chloro-phenyl)-[1,2,4]thiadiazol-5-yl]-piperazine] was tested, and the EC50 was 0.0077 µM.

`Cc1ccc(-c2nsc(N3CCN(CCc4ccc(F)c(F)c4)CC3)n2)cn1` [Example 148, 1-[2-(3,4-Difluoro-phenyl)-ethyl]-4-[3-(6-methyl-pyridin-3-yl)-[1,2,4]thiadiazol-5-yl]-piperazine] gave an EC50 of 0.0675 µM.

Molecule `FC(F)Oc1cccc(CCN2CCN(c3nc(-c4ccc(Cl)cc4)ns3)CC2)c1` [Example 69, 1-[3-(4-Chloro-phenyl)-[1,2,4]thiadiazol-5-yl]-4-[2-(3-difluoromethoxy-phenyl)-ethyl]-piperazine] has an EC50 of 0.0437 µM.

Molecule `Cc1ccccc1CN1CCN(c2nc(-c3ccc(C#N)cc3)ns2)CC1` [Example 118, 4-{5-[4-(2-Methyl-benzyl)-piperazin-1-yl]-[1,2,4]thiadiazol-3-yl}-benzonitrile] has an EC50 of 0.181 µM.

Work on `COc1ccc(C(C)CN2CCN(c3nc(-c4ccc(Cl)cc4)ns3)CC2)cc1` (stereo not shown) [Example 72, 1-[3-(4-Chloro-phenyl)-[1,2,4]thiadiazol-5-yl]-4-[2-(4-methoxy-phenyl)-propyl]-piperazine] yielded an EC50 of 0.0943 µM.

For `COc1ccc(CCN2CCN(c3nc(-c4cccc(OC)c4)ns3)CC2)cc1` [Example 18, 1-[2-(4-Methoxy-phenyl)-ethyl]-4-[3-(3-methoxy-phenyl)[1,2,4]thiadiazol-5-yl]-piperazine], the EC50 was 0.367 µM.

`Clc1cccc(-c2nsc(N3CCN(CCC4CCCCC4)CC3)n2)c1` [Example 162, 3-(3-chlorophenyl)-5-(4-(2-cyclohexylethyl)piperazin-1-yl)-1,2,4-thiadiazole] was tested, and the EC50 was 0.0033 µM.

`Fc1ccc(CCN2CCN(c3nc(-c4cccc(Cl)c4)ns3)CC2)cc1` [Example 85, 1-[3-(3-Chloro-phenyl)-[1,2,4]thiadiazol-5-yl]-4-[2-(4-fluoro-phenyl)-ethyl]-piperazine] showed an EC50 of 0.0031 µM.

Work on `COc1ccc(CCN2CCN(c3nc(-c4cccc(Cl)c4)ns3)CC2)cc1` [Example 41, 1-[3-(3-Chloro-phenyl)-[1,2,4]thiadiazol-5-yl]-4-[2-(4-methoxy-phenyl)-ethyl]-piperazine] yielded an EC50 of 0.0007 µM.

With `FC(F)(F)c1cccc(CCN2CCN(c3nc(-c4cc(Cl)ccn4)ns3)CC2)c1` [Example 159, 3-(4-chloropyridin-2-yl)-5-(4-(3-(trifluoromethyl)phenethyl)piperazin-1-yl)-1,2,4-thiadiazole] the EC50 was 0.119 µM.

Molecule `CC(C)Oc1ccc(CCN2CCN(c3nc(-c4ccc(Cl)cc4)ns3)CC2)cc1` [Example 71, 1-[3-(4-Chloro-phenyl)-[1,2,4]thiadiazol-5-yl]-4-[2-(4-isopropoxy-phenyl)-ethyl]-piperazine] has an EC50 of 0.429 µM.

`Cc1ncc(-c2nsc(N3CCN(CCc4ccc(F)c(F)c4)CC3)n2)cn1` [Example 182, 5-(4-(3,4-difluorophenethyl)piperazin-1-yl)-3-(2-methylpyrimidin-5-yl)-1,2,4-thiadiazole] showed an EC50 of 0.192 µM.

`COc1ccc(CCN2CCN(c3nc(-c4cccs4)ns3)CC2)cc1` [Example 44, 1-[2-(4-Methoxy-phenyl)-ethyl]-4-(3-thiophen-2-yl-[1,2,4]thiadiazol-5-yl)-piperazine] showed an EC50 of 0.0023 µM.

`COc1ccc(CCN2CCN(c3nc(-c4cccc(F)c4)ns3)CC2)cn1` [Example 100, 1-[3-(3-Fluoro-phenyl)-[1,2,4]thiadiazol-5-yl]-4-[2-(6-methoxy-pyridin-3-yl)-ethyl]-piperazine] was tested, and the EC50 was 0.0043 µM.

`COc1cccc(CCN2CCN(c3nc(-c4ccc(Cl)cc4F)ns3)CC2)c1` [Example 55, 1-[3-(4-Chloro-2-fluoro-phenyl)-[1,2,4]thiadiazol-5-yl]-4-[2-(3-methoxy-phenyl)-ethyl]-piperazine] showed an EC50 of 0.0042 µM.

`Fc1cccc(-c2nsc(N3CCN(CCC4CCCCC4)CC3)n2)c1` [Example 154, 1-(2-Cyclohexyl-ethyl)-4-[3-(3-fluoro-phenyl)[1,2,4]thiadiazol-5-yl]-piperazine] showed an EC50 of 0.017 µM.

`Cc1cc(-c2nsc(N3CCN(CCc4ccc(F)c(F)c4)CC3)n2)cnn1` [Example 175, 5-(4-(3,4-difluorophenethyl)piperazin-1-yl)-3-(6-methylpyridazin-4-yl)-1,2,4-thiadiazole] showed an EC50 of 0.0134 µM.

`COc1cccc(CCN2CCN(c3nc(-c4ccc(OC(F)(F)F)cc4)ns3)CC2)c1` [Example 36, 1-[2-(3-Methoxy-phenyl)-ethyl]-4-[3-(4-trifluoromethoxy-phenyl)-[1,2,4]thiadiazol-5-yl]-piperazine] was tested, and the EC50 was 0.119 µM.

Molecule `COc1ccc(CCN2CCN(c3nc(-c4ccc(C)nc4)ns3)CC2)cc1` [Example 95, 1-[2-(4-Methoxy-phenyl)-ethyl]-4-[3-(6-methyl-pyridin-3-yl)-[1,2,4]thiadiazol-5-yl]-piperazine] has an EC50 of 0.0031 µM.

Work on `COc1cc(CCN2CCN(c3nc(-c4cc(Cl)ccn4)ns3)CC2)ccn1` [Example 127, 1-[3-(4-Chloro-pyridin-2-yl)-[1,2,4]thiadiazol-5-yl]-4-[2-(2-methoxy-pyridin-4-yl)-ethyl]-piperazine] yielded an EC50 of 0.109 µM.

In the case of `Clc1cc(-c2nsc(N3CCN(CCc4ccccc4)CC3)n2)ccn1` [Example 170, 3-(2-chloropyridin-4-yl)-5-(4-phenethylpiperazin-1-yl)-1,2,4-thiadiazole], the EC50 is reported as 0.0007 µM.

`FC(F)(F)Oc1cccc(CCN2CCN(c3nc(-c4ccc(Cl)cc4)ns3)CC2)c1` [Example 38, 1-[3-(4-Chloro-phenyl)-[1,2,4]thiadiazol-5-yl]-4-[2-(3-trifluoromethoxy-phenyl)-ethyl]-piperazine] showed an EC50 of 0.211 µM.

`Fc1cccc(-c2nsc(N3CCN(CCc4ccccc4)CC3)n2)c1` [Example 83, 1-[3-(3-Fluoro-phenyl)-[1,2,4]thiadiazol-5-yl]-4-phenethyl-piperazine] showed an EC50 of 0.0095 µM.

`Clc1ccc(-c2nsc(N3CCN(CCc4ccccc4Cl)CC3)n2)cc1` [Example 29, 1-[2-(2-Chloro-phenyl)-ethyl]-4-[3-(4-chloro-phenyl)-[1,2,4]thiadiazol-5-yl]-piperazine] gave an EC50 of 0.0013 µM.

With `Fc1ccccc1CCN1CCN(c2nc(-c3ccc(Cl)cc3)ns2)CC1` [Example 28, 1-[3-(4-Chloro-phenyl)-[1,2,4]thiadiazol-5-yl]-4-[2-(2-fluoro-phenyl)-ethyl]-piperazine] the EC50 was 0.0452 µM.

`Clc1ccc(-c2nsc(N3CCN(CCC4CCCCC4)CC3)n2)cc1` [Example 161, 3-(4-chlorophenyl)-5-(4-(2-cyclohexylethyl)piperazin-1-yl)-1,2,4-thiadiazole] was tested, and the EC50 was 0.0396 µM.

For `Fc1ccc(CCN2CCN(c3nc(-c4ccc(Cl)cc4)ns3)CC2)cc1` [Example 24, 1-[3-(4-Chloro-phenyl)-[1,2,4]thiadiazol-5-yl]-4-[2-(4-fluoro-phenyl)-ethyl]-piperazine], the EC50 was 0.0007 µM.

For `COc1cc(CCN2CCN(c3nc(-c4cccc(C#N)c4)ns3)CC2)ccn1` [Example 117, 3-(5-{4-[2-(2-Methoxy-pyridin-4-yl)-ethyl]-piperazin-1-yl}-[1,2,4]thiadiazol-3-yl)-benzonitrile], the EC50 was 0.0058 µM.

Molecule `COc1cc(CCN2CCN(c3nc(-c4ccc(C)nc4)ns3)CC2)ccn1` [Example 97, 1-[2-(2-Methoxy-pyridin-4-yl)-ethyl]-4-[3-(6-methyl-pyridin-3-yl)-[1,2,4]thiadiazol-5-yl]-piperazine] has an EC50 of 0.0513 µM.
